Results taken from patent US20080261936A1, “METHODS OF REDUCING THE BODY WEIGHT OF A SUBJECT BY ADMINISTERING A FATTY ACID ESTER OF AN ESTROGEN OR ESTROGEN DERIVATIVE IN AN OIL AND COMPOSITIONS CONTAINING THE SAME” (Manhattan Pharmaceuticals, Inc., priority 2006, published 2008).
≈ marks a conversion by molar mass, not a printed value.

How the values were obtained:
Format in all cases: physicochemical
[1] = Oil evaluation: solubility behavior of oleoyl-estrone, 60 mg/g in single oils; details: for solubility at 96 h: oil or lipid, after 96 hr, more oil added
Experimental: (§1) An oil evaluation was done to determine the solubility behavior of oleoyl-estrone as a function of type of oil, concentration and temperature. The solubility of oleoyl-estrone was evaluated at concentrations of 60 mg/g and 200 mg/g. […]

[2] = Oil evaluation: solubility behavior of oleoyl-estrone, 200 mg/g in single oils
Experimental: as §1

[3] = Solubility of oleoyl-estrone in binary oil blends, 200 mg/g at room temperature
Experimental: These four types of oils were then evaluated in binary blend systems with an oleoyl-estrone concentration of 200 mg/g at room temperature for 24 hours and 96 hours.

[4] = 60 mg/g in Canola at RT (about 22° C.)
[5] = 60 mg/g in Captex 300-6C at RT (about 22° C.)
[6] = 60 mg/g in Captex 300 EP at RT (about 22° C.)
[7] = 60 mg/g in Corn at RT (about 22° C.)
[8] = 60 mg/g in Labrafac at RT (about 22° C.)
[9] = 60 mg/g in Labrasol at RT (about 22° C.)
[10] = 60 mg/g in Olive at RT (about 22° C.)
[11] = 60 mg/g in Safflower at RT (about 22° C.)
[12] = 60 mg/g in Sesame at RT (about 22° C.)
[13] = 60 mg/g in Soybean at RT (about 22° C.)
[14] = 200 mg/g in Captex 300-6C at 40° C.
[15] = 200 mg/g in Captex 300 EP at 40° C.
[16] = 200 mg/g in Labrafil 1944 CS at 40° C.
[17] = 200 mg/g in Safflower at 40° C.
[18] = 200 mg/g in Canola:Labrafil (2:1) at RT (about 22° C.)
[19] = 200 mg/g in Captex 300 EP:Labrafil (2:1) at RT (about 22° C.)
[20] = 200 mg/g in Safflower:Labrafil (2:1) at RT (about 22° C.)

CCCCCCCC/C=C\CCCCCCCC(=O)Oc1ccc2c(c1)CC[C@@H]1[C@@H]2CC[C@]2(C)C(=O)CC[C@@H]12 [oleoyl-estrone, [3(Z)]-3-[(1-oxo-9-octadecenyl)oxy]-estra-1,3,5(10)-trien-17-one]
Solubility Cycled to 5° C. after 96 hr ([1]; 60 mg/g in Canola): Dissolved | Solubility After 24 hr [1, 4]: Dissolved | Solubility After 96 hr [1, 4]: Dissolved | Solubility Cycled to 5° C. after 96 hr ([1]; 60 mg/g in Captex 300-6C): Dissolved | Solubility After 24 hr [1, 5]: Dissolved | Solubility After 96 hr [1, 5]: Dissolved | Solubility Cycled to 5° C. after 96 hr ([1]; 60 mg/g in Captex 300 EP): Dissolved | Solubility After 24 hr [1, 6]: Dissolved | Solubility After 96 hr [1, 6]: Dissolved | Solubility Cycled to 5° C. after 96 hr ([1]; 60 mg/g in Corn): Dissolved | Solubility After 24 hr [1, 7]: Dissolved | Solubility After 96 hr [1, 7]: Dissolved | Solubility Cycled to 5° C. after 96 hr ([1]; 60 mg/g in Labrafac): Dissolved | Solubility After 24 hr [1, 8]: Dissolved | Solubility After 96 hr [1, 8]: Dissolved | Solubility Cycled to 5° C. after 96 hr ([1]; 60 mg/g in Labrafil 1944 CS): Dissolved | Solubility After 96 hr ([1]; 60 mg/g in Labrafil 1944 CS at RT (about 22° C.)): NOT Dissolved more oil | Solubility Cycled to 5° C. after 96 hr ([1]; 60 mg/g in Labrafil M 125CS): Dissolved | Solubility After 96 hr ([1]; 60 mg/g in Labrafil M 125CS at RT (about 22° C.)): NOT Dissolved more oil | Solubility After 24 hr [1, 9]: Dissolved | Solubility After 96 hr [1, 9]: Dissolved | Solubility Cycled to 5° C. after 96 hr ([1]; 60 mg/g in Olive): Dissolved | Solubility After 24 hr [1, 10]: Dissolved | Solubility After 96 hr [1, 10]: Dissolved | Solubility Cycled to 5° C. after 96 hr ([1]; 60 mg/g in Safflower): Dissolved | Solubility After 24 hr [1, 11]: Dissolved | Solubility After 96 hr [1, 11]: Dissolved | Solubility Cycled to 5° C. after 96 hr ([1]; 60 mg/g in Sesame): Dissolved | Solubility After 24 hr [1, 12]: Dissolved | Solubility After 96 hr [1, 12]: Dissolved | Solubility Cycled to 5° C. after 96 hr ([1]; 60 mg/g in Soybean): Dissolved | Solubility After 24 hr [1, 13]: Dissolved | Solubility After 96 hr [1, 13]: Dissolved | solubility at 96 h ([1]; Labrafil 1944 CS (oil), in Labrafil 1944 CS at RT (about 22° C.)): ~5000 µg/mL (≈ 9.35 mM) | solubility at 96 h ([1]; Labrafil M 125CS (oil), in Labrafil M 125CS at RT (about 22° C.)): ≤ 3000 µg/mL | Solubility Cycled to 22° C. for 24 hr prior to 5° C. cycle for 96 hr ([2]; 200 mg/g in Canola): Dissolved | Solubility After 24 hr ([2]; 200 mg/g in Canola at 40° C.): Dissolved | Solubility After 96 hr ([2]; 200 mg/g in Canola at 40° C.): Dissolved | Solubility Cycled to 22° C. for 24 hr prior to 5° C. cycle for 96 hr ([2]; 200 mg/g in Captex 300-6C): Dissolved | Solubility After 24 hr [2, 14]: Dissolved | Solubility After 96 hr [2, 14]: Dissolved | Solubility Cycled to 22° C. for 24 hr prior to 5° C. cycle for 96 hr ([2]; 200 mg/g in Captex 300 EP): Dissolved | Solubility After 24 hr [2, 15]: Dissolved | Solubility After 96 hr [2, 15]: Dissolved | Solubility Cycled to 22° C. for 24 hr prior to 5° C. cycle for 96 hr ([2]; 200 mg/g in Corn): Precipitated at 5 °C after 72 hr | Solubility After 24 hr ([2]; 200 mg/g in Corn at 40° C.): Dissolved | Solubility After 96 hr ([2]; 200 mg/g in Corn at 40° C.): Dissolved | Solubility Cycled to 22° C. for 24 hr prior to 5° C. cycle for 96 hr ([2]; 200 mg/g in Labrafac): Precipitated at 5 °C after 4 hr | Solubility After 24 hr ([2]; 200 mg/g in Labrafac at 40° C.): Dissolved | Solubility After 96 hr ([2]; 200 mg/g in Labrafac at 40° C.): Dissolved | Solubility Cycled to 22° C. for 24 hr prior to 5° C. cycle for 96 hr ([2]; 200 mg/g in Labrafil 1944 CS): Precipitated at 5 °C after 4 hr | Solubility After 24 hr [2, 16]: Dissolved | Solubility After 96 hr [2, 16]: Dissolved | Solubility Cycled to 22° C. for 24 hr prior to 5° C. cycle for 96 hr ([2]; 200 mg/g in Labrafil M 125CS): Precipitated at 5 °C after 24 hr | Solubility After 96 hr ([2]; 200 mg/g in Labrafil M 125CS at 40° C.): Dissolved | Solubility Cycled to 22° C. for 24 hr prior to 5° C. cycle for 96 hr ([2]; 200 mg/g in Labrasol): Precipitated at RT not tested | Solubility After 24 hr ([2]; 200 mg/g in Labrasol at 40° C.): Dissolved | Solubility After 96 hr ([2]; 200 mg/g in Labrasol at 40° C.): Dissolved | Solubility Cycled to 22° C. for 24 hr prior to 5° C. cycle for 96 hr ([2]; 200 mg/g in Olive): Precipitated at 5 °C after 4 hr | Solubility After 24 hr ([2]; 200 mg/g in Olive at 40° C.): Dissolved | Solubility After 96 hr ([2]; 200 mg/g in Olive at 40° C.): Dissolved | Solubility Cycled to 22° C. for 24 hr prior to 5° C. cycle for 96 hr ([2]; 200 mg/g in Safflower): Dissolved | Solubility After 24 hr [2, 17]: Dissolved | Solubility After 96 hr [2, 17]: Dissolved | Solubility Cycled to 22° C. for 24 hr prior to 5° C. cycle for 96 hr ([2]; 200 mg/g in Sesame): Precipitated at 5 °C after 5 hr | Solubility After 24 hr ([2]; 200 mg/g in Sesame at 40° C.): Dissolved | Solubility After 96 hr ([2]; 200 mg/g in Sesame at 40° C.): Dissolved | Solubility Cycled to 22° C. for 24 hr prior to 5° C. cycle for 96 hr ([2]; 200 mg/g in Soybean): Dissolved | Solubility After 24 hr ([2]; 200 mg/g in Soybean at 40° C.): Dissolved | Solubility After 96 hr ([2]; 200 mg/g in Soybean at 40° C.): Dissolved | Solubility and thermal stability in single oils (summary) ([2]; in safflower oil, soybean oil, canola oil and the medium chain triglycerides): soluble and thermally stable | Notes (phase separation) [3, 18]: No phase separation | Solubility After 24 hr [3, 18]: Dissolved | Solubility After 96 hr [3, 18]: Dissolved | Notes (phase separation) [3, 19]: No phase separation | Solubility After 24 hr [3, 19]: Dissolved | Solubility After 96 hr [3, 19]: Dissolved | Notes (phase separation) [3, 20]: No phase separation | Solubility After 24 hr [3, 20]: NOT Dissolved | Solubility After 96 hr [3, 20]: Dissolved | Solubility After 24 hr ([3]; 200 mg/g in Soybean:Labrafil (2:1) at RT (about 22° C.)): NOT Dissolved
